Publication PMC4391943, “Novel Epigallocatechin-3-Gallate (EGCG) Derivative as a New Therapeutic Strategy for Reducing Neuropathic Pain after Chronic Constriction Nerve Injury in Mice” (PLoS ONE, 2015)

Key:
[1] = Serum stability study, human serum; assay type: in vitro ADME; details: 37°C, 75% serum, 0.5 mM compound; for half-life at 0.5 mM: human serum (75% final serum content), read-out: half-life (t1/2) (converted)
Experimental: Peptide stabilities were assayed in diluted serum as previously described. Human serum (Sigma, S7023) or mouse serum (Europa Bioproducts, EQSM-0100) were incubated at 37°C for 10 min. The assay was initiated upon the addition of the test compound solved in PBS to the serum (75% final serum content) for a final compound concentration of 0.5 mM. Then, 500 µL aliquots of the incubations were taken for the following time points: 0, 15, 30, 60, 120 and 240 min. The aliquots were mixed with 750 µL of cold acetonitrile (ACN) and incubated at 4°C for 10 min to precipitate serum proteins. The supernatant was collected for each sample after centrifugation at 39,000 g for 10 min and were immediately analyzed by high performance liquid chromatography-mass spectrometry (HPLC-MS).

[2] = test system: FASN; design: method as in PMID 22559865; details: previously reported; cited from earlier work
[3] = design: method as in PMID 20008854, PMID 22559865, PMID 17902053; details: previously published toxicity studies; cited from earlier work
[4] = test system: NMDAR2B; assay: Western blot of phospho-NMDAR2B and total NMDAR2B in the dorsal horn of the spinal cord; assay type: in vivo, mice; details: 50 mg/Kg, 56 dpi
Experimental: (§1) Mice (n = 5 per group) were sacrificed with sodium pentobarbital (90 mg/kg; i.p.) at 14 and 56 dpi and spinal cord segments distal to T12 vertebra were quickly removed and frozen. For total protein extraction, the dorsal horn of the spinal cord was homogenized in modified RIPA buffer (50 mM Tris–HCl pH 7.5, 1% Triton X-100, 0.5% sodium deoxycholate, 0.2% SDS, 100 mM NaCl, 1 mM EDTA, 2 mM PMSF, 1 μg/μL aprotinin, 1 μg/μL leupeptin and 2 mM sodium orthovanadate).
(§2) Western blotting was performed as previously described. The following primary antibodies were used: anti-FASN (1:1000, BD Bioscience, San Jose, CA); anti-TNF-α, anti-IL-1β, anti-IL-6 and anti-NFκB (all 1:500, Santa Cruz Biotechnology, Santa Cruz, CA); anti-phosphoNMDAR2B (Tyr1472) (1:2000, Affinity Bioreagents, Golden, CO) and anti-NMDAR2B (1:1000, Chemicon, Temecula, CA). Loading control was performed by reprobing the membranes with anti-actin (1:10,000; MP Biochemicals, Aurora, OH), anti-NeuN (1:1,000; Chemicon) or anti-N-cadherin (1:1000, BD Bioscience). Membranes were incubated with the corresponding horseradish peroxidase-conjugated antibody (1:2,000; Promega, Madison, WI). Immunoreactive bands were visualized using the Western Blotting Luminol Reagent and quantified by a computer-assisted densitometer (Gel-Pro Analyzer, version 4, Media Cybernetics).

[5] = biological target: T1, fatty acid synthase (FASN) (Mus musculus, UniProt P19096); assay: Fatty acid synthase activity in the dorsal horn of the spinal cord of treated CCI-mice (NADPH oxidation, A340); assay type: in vivo; details: 50 mg/Kg, n = 5; for FASN activity, % of vehicle group: 14 dpi
T1 construct: The dorsal horn of the spinal cord tissue was homogenized in lysis buffer; from tissue; host or cells: dorsal horn of the spinal cord of female Balb-c mice (CCI model)
T1 sequence (P19096 whole entry): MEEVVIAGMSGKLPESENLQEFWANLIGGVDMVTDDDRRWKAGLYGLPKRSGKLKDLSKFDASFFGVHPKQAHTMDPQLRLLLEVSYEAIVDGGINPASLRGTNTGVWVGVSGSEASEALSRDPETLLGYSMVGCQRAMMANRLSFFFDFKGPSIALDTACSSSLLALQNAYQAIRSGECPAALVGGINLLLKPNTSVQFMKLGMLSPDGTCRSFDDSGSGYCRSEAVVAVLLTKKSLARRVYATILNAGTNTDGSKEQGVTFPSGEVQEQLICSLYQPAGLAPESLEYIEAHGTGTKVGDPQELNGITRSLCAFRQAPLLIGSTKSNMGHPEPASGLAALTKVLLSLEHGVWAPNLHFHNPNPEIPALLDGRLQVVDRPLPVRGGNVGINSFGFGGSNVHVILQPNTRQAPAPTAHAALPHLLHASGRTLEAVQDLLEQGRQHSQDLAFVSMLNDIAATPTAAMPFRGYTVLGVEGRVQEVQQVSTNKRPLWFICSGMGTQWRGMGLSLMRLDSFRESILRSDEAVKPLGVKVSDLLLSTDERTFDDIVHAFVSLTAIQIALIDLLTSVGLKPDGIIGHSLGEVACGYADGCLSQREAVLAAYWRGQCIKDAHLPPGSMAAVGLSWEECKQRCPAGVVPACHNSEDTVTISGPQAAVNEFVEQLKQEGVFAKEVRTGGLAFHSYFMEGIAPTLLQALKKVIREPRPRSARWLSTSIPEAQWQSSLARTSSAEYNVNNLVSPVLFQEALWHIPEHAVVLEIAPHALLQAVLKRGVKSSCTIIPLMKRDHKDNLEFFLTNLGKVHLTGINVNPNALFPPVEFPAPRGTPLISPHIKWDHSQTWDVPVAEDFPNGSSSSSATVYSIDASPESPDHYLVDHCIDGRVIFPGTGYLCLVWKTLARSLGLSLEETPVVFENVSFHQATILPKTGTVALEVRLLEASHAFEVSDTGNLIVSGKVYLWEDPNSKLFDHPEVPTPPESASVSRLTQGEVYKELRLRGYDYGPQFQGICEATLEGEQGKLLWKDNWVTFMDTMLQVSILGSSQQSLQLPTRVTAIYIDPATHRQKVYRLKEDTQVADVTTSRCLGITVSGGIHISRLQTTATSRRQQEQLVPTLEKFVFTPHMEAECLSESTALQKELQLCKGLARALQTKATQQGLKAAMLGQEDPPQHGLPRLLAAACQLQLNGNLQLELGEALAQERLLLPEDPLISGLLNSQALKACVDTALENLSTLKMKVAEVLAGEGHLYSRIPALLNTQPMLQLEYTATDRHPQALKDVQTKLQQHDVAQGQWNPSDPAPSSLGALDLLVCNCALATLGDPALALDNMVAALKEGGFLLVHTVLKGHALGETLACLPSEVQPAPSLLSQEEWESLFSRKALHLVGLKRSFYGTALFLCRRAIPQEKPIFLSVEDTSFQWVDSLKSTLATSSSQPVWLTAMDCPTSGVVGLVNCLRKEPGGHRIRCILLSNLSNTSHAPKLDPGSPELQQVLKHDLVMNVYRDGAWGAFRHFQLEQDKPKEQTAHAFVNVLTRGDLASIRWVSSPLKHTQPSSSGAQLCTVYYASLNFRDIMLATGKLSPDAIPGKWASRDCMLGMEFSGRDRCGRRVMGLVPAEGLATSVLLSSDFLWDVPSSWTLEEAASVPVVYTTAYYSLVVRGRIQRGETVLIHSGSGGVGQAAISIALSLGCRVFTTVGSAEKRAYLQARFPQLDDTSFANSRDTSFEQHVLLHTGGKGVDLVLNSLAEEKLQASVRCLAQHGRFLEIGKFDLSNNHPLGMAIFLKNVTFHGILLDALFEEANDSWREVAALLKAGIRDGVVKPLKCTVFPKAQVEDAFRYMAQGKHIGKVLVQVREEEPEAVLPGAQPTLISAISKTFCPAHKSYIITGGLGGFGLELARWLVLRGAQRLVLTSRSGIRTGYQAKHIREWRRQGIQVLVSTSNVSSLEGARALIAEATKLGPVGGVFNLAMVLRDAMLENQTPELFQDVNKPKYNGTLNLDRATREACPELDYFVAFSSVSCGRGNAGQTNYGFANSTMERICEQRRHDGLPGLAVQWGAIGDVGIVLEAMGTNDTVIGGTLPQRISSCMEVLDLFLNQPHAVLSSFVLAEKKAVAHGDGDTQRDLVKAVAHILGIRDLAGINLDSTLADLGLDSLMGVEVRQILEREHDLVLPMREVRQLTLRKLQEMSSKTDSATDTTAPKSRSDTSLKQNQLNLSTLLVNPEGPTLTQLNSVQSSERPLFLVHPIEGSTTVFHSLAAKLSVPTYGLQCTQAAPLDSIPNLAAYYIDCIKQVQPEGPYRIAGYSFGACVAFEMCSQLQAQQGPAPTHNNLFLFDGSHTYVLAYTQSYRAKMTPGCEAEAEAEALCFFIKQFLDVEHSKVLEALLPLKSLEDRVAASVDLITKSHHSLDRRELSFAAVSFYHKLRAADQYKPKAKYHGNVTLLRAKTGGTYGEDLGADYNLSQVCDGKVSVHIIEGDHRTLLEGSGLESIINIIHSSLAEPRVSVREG
Experimental: For dose response studies, EGCG and the two synthetic EGCG derivatives compound 23 and compound 30 were administered by intra-peritoneal injection at 10, 30, 50 and 100 mg/Kg (n = 5 mice/compound/dose), 30 minutes after the CCI. To analyze the time-dependent effect EGCG and the two synthetic EGCG derivatives compound 23 and compound 30 were administered by intra-peritoneal injection at 50 mg/Kg (n = 15 mice/compound), 30 minutes after the CCI. Another set of animals were used to study the effect of 50 mg/kg of EGCG and the two synthetic EGCG derivatives compound 23 and compound 30 at 14 dpi (n = 15 mice/compound). In all cases, the administration was daily repeated during the first week. All compounds were dissolved in DMSO/saline solution (1:9; v/v), used as vehicle group.
The fatty acid synthase (FASN) activity was assayed in particle-free supernatants by recording spectrophotometrically at 37°C (Lambda Bio 20, Perkin Elmer Boston, MA, USA, EUA) and measuring the decrease of A340 nm due to oxidation of NADPH as previously described. Briefly, mice (n = 5 per group) were sacrificed with sodium pentobarbital (90 mg/kg; i.p.) at 14 and 56 dpi. Spinal cord segments distal to T12 vertebra were quickly removed and snap frozen. The dorsal horn of the spinal cord tissue was homogenized in lysis buffer (250mM sucrose, 20 mM HEPES pH 7.6, 2 mM MgCl2, 1 mM DTT, 1 mM EDTA, 50 mM NaF, 2 mM phenylmethylsulfonyl fluoride (PMSF), 1 μg/μL aprotinin, 1 μg/μL leupeptin, 2 mM sodium orthovanadate). Homogenized samples were centrifuged at 3,500 x g for 10 minutes, and then supernatant was collected and centrifuged at 100,000 x g for 30 minutes to obtain supernatants particle-free. The protein concentrations were determined using the Dc protein assay kit. A 90 μg amount of protein was used for the reaction. A pre-incubation during 15 minutes at 37°C in 0.2 M of potassium phosphate buffer, pH = 7.0 was kept for temperature equilibration. Then, samples were added to the reaction mixture (200 mM potassium phosphate buffer, pH 7.0; 1 mM EDTA; 1 mM dithiothreitol, 30 μM Acetyl-CoA and 0.24 mM NADPH) and then were monitored at 340 nm for 3 minutes to measure background NADPH oxidation. After the addition of 50 μM of malonyl-CoA, the reaction was assayed for 10 minutes to determine FASN-dependent oxidation of NADPH. Rates were corrected with the background rate of NADPH oxidation.

[6] = test system: NF-κB; assay: Western blot of nuclear NF-κB levels in the dorsal horn of the spinal cord; assay type: in vivo, mice; details: 50 mg/Kg, 14 dpi
Experimental: Subcellular fractionation was obtained by differential centrifugation as described elsewhere. Briefly, tissue was homogenized in lysis buffer (10 mM Tris-HCl pH 7.5, 1 mM EDTA, 1 mM Na3VO4, 0.25 M sucrose, 2 mM PMSF, 1 μg/μL aprotinin, 1 μg/μL leupeptin, 2 mM sodium orthovanadate). The homogenate was centrifuged at 2,000 × g for 10 min at 4°C to separate the nuclei fraction (P1). The P1 was resuspended in lysis buffer. The resulting supernatant was centrifuged at 10,000×g for 15 min at 4°C to obtain a crude membrane fraction (P2). The P2 was resuspended and incubated in the lysis buffer containing 0.5% Triton X-100 for 15 min, and then centrifuged at 25,000 × g for 20 min to obtain the synaptosomal membrane fraction (P3). Finally, the P3 was resuspended in lysis buffer and centrifuged on a discontinuous sucrose gradient (0.8 M, 1 M and 1.2 M) at 150,000×g for 2 h. Synaptic plasma membrane (SPM) was collected from the 1:1.2 M interface and resuspended in 50 mM HEPES, 2 mM EDTA, 1 mM PMSF, 10 μg/ml aprotinin, 1 μg/ml leupeptin and 2 mM sodium orthovanadate.
as §2

[7] = test system: TNF-α, IL-1β and IL-6; assay: Western blot of cytokine protein levels in the dorsal horn of the spinal cord; assay type: in vivo, mice; details: 50 mg/Kg, 14 dpi
Experimental: as §1, §2

half-life at 0.5 mM [1] | FASN activity, % of vehicle group [5] | reduction of FASN activity ([5]; 56 dpi) | Molecule | % of FASN inhibition [2] | changes on body weight versus the control group [3] | phospho-levels of NMDAR2B compared to vehicle group [4] | nuclear NF-κB levels [6] | protein levels of TNF-α, IL-1β and IL-6 compared to vehicle group [7] | half-life (t1/2) [1]
1.4 h | No differences |  | O=C(Oc1cccc2c(OC(=O)c3cc(O)c(O)c(O)c3)cccc12)c1cc(O)c(O)c(O)c1 [Compound 23, 1,5-Bis [(3,4,5-trihydroxybenzoyl)oxy] naphthalene] | 30% | neither 23 nor 30 caused changes on body weight | did not induce variations | no changes |  | 
1.9 h | 61±8 % of vehicle group | 32±9 % of vehicle | O=C(Oc1ccc(-c2ccc(OC(=O)c3cc(O)c(O)c(O)c3)cc2)cc1)c1cc(O)c(O)c(O)c1 [Compound 30, 4,4′-Bis [(3,4,5-trihydroxybenzoyl)oxy]-1,1′-biphenyl] | 90% | neither 23 nor 30 caused changes on body weight | specific decrease | reduced | reduced | 

Molecule | half-life at 0.5 mM [1] | FASN activity, % of vehicle group [5] | reduction of FASN activity ([5]; 56 dpi) | % of FASN inhibition [2] | changes on body weight versus the control group [3] | phospho-levels of NMDAR2B compared to vehicle group [4] | nuclear NF-κB levels [6] | protein levels of TNF-α, IL-1β and IL-6 compared to vehicle group [7] | half-life (t1/2) [1]
epigallocatechin-3-gallate [EGCG] |  | 57±8 % of vehicle group |  |  |  | did not induce variations | reduced | reduced | < 0,1 h
